Reference: the NIST ThermoML archive (doi:10.1016/j.tca.2013.02.022)

Assay: cn = amount concentration of the nth substance listed, in mol/dm3
Conditions: 298.15 K, 101 kPa, Liquid, Alternating current cell with electrodes

CCn1cc[n+](C)c1.[Br-] [1-ethyl-3-methylimidazolium bromide] + CC#N
Conditions	molar conductivity [S·m2/mol]
c1 = 0.000941	0.0155
c1 = 0.001725	0.0152
c1 = 0.002388	0.015
c1 = 0.002957	0.0149
c1 = 0.003994	0.0146
c1 = 0.0046	0.0145
c1 = 0.005175	0.0144
c1 = 0.005645	0.0143
c1 = 0.006038	0.0143
c1 = 0.006369	0.0142
c1 = 0.006654	0.0142
c1 = 0.007011	0.0141
c1 = 0.007656	0.014
c1 = 0.007998	0.0139
c1 = 0.008433	0.0139

CCn1cc[n+](C)c1.[Br-] [1-ethyl-3-methylimidazolium bromide] + CC(=O)N(C)C
Conditions	molar conductivity [S·m2/mol]
c1 = 0.000995	0.00429
c1 = 0.001858	0.004
c1 = 0.002527	0.00377
c1 = 0.003129	0.00364
c1 = 0.003697	0.00354
c1 = 0.004106	0.00348
c1 = 0.004509	0.00335
c1 = 0.005187	0.0032
c1 = 0.005736	0.00309
c1 = 0.005973	0.00305
c1 = 0.006388	0.003
c1 = 0.0073	0.00283
c1 = 0.007821	0.00273
c1 = 0.008279	0.0027
c1 = 0.008995	0.00254

CCn1cc[n+](C)c1.[Br-] [1-ethyl-3-methylimidazolium bromide] + CN(C)C=O
Conditions	molar conductivity [S·m2/mol]
c1 = 0.001828	0.00732
c1 = 0.002531	0.0071
c1 = 0.003133	0.0069
c1 = 0.003655	0.00675
c1 = 0.004225	0.00667
c1 = 0.004874	0.00652
c1 = 0.005483	0.00643
c1 = 0.005981	0.0063
c1 = 0.006397	0.00622
c1 = 0.006905	0.00616
c1 = 0.007429	0.0061
c1 = 0.007833	0.00604
c1 = 0.008291	0.00593
c1 = 0.008681	0.00587
c1 = 0.009008	0.00584

CCn1cc[n+](C)c1.[Br-] [1-ethyl-3-methylimidazolium bromide] + CO
Conditions	molar conductivity [S·m2/mol]
c1 = 0.001828	0.00814
c1 = 0.002264	0.00804
c1 = 0.002683	0.00795
c1 = 0.003262	0.00784
c1 = 0.003528	0.00779
c1 = 0.004007	0.00771
c1 = 0.004303	0.00765
c1 = 0.004622	0.0076
c1 = 0.004858	0.00757
c1 = 0.005093	0.00753
c1 = 0.005282	0.0075
c1 = 0.005565	0.00746
c1 = 0.005822	0.00743
c1 = 0.006122	0.00739
c1 = 0.006338	0.00736

CCn1cc[n+](C)c1.[Br-] [1-ethyl-3-methylimidazolium bromide] + C[S+](C)[O-]
Conditions	molar conductivity [S·m2/mol]
c1 = 0.002105	0.00246
c1 = 0.003858	0.00225
c1 = 0.005342	0.00209
c1 = 0.006614	0.00198
c1 = 0.007717	0.0019
c1 = 0.008681	0.00182
c1 = 0.009532	0.00177
c1 = 0.01097	0.00166
c1 = 0.01213	0.00158
c1 = 0.0135	0.0015
c1 = 0.01458	0.00144
c1 = 0.01614	0.00136
c1 = 0.01721	0.0013
c1 = 0.01812	0.00126
c1 = 0.01902	0.00122
